According to a melting point compilation (Tetko et al.; mined from patent text by program, amines drawn as free bases though some values may be those of a salt):

Q: Which melting point does the source give for `CCC(=O)OC[C@H]1O[C@@H]2[C@@H](Sc3ccc(Cl)cc3N2CCN(CC)CC)[C@@H](OC(=O)CC)[C@@H]1OC(=O)CC` here?
A: 125 to 127 °C

Q: With `CCSc1ccc(-c2ccccn2)c2c1C(=O)CC(C)C2` (centres undefined) as the molecule, how does the melting point read?
A: 120 to 122 °C

Q: Which melting point does the source give for `CC1=NNC(=O)c2cccc3[nH]cc1c23` here?
A: 335 to 336 °C

Q: With `[N-]=[N+]=NC(C(=O)O)C1c2ccccc2CCc2ccccc21` (centres undefined) as the molecule, how does the melting point read?
A: 101 to 102 °C

Q: With `CCN1CCC(=O)N(c2c(C)cccc2Cl)C1=S` as the molecule, how does the melting point read?
A: 141 to 144 °C

Q: Which melting point does the source give for `COc1cc(N2CCN([C@H]3CC[C@@H](c4cn(C)c5ccc(C#N)cc54)CC3)CC2)c2ncc(C)cc2c1` here?
A: 190 to 192 °C

Q: With `N#Cc1cc(F)c(N=C=S)cc1O` as the molecule, how does the melting point read?
A: 178 to 180 °C

Q: For `COc1ccc(COC(=O)NC(CO)Cc2ccc(O)cc2)cc1` (centres undefined), which melting point is on record?
A: 139 to 141 °C

Q: With `c1ccc2c(c1)-c1ccccc1C21c2ccccc2-c2ccccc21` as the molecule, how does the melting point read?
A: 198 °C

Q: Which melting point does the source give for `CCOC(=O)c1c(C)nc(NN)c2nnn(CC)c12` here?
A: 75 to 78 °C

Q: Which melting point does the source give for `COc1ccc(N2CCN(c3nc(NC(C)(C)C(C)(C)C)nc(NC(C)(C)C(C)(C)C)n3)CC2)cc1` here?
A: 155 to 157 °C

Q: Which melting point does the source give for `Cc1cccc(NC(=O)NC2N=C(c3ccccc3F)c3cccc(C)c3N(CC(=O)c3ccccc3C)C2=O)c1` (centres undefined) here?
A: 190 to 196 °C

Q: For `CN(C)CCOc1ccc2ccc(N)nc2n1`, which melting point is on record?
A: 105 °C

Q: For `COC(=O)NN=C(C)c1c[nH]c(-c2ccccc2)n1`, which melting point is on record?
A: 226 to 227 °C

Q: For `Cc1nn(CCNS(C)(=O)=O)c(-c2ccc(F)cc2)c1-c1ccc2c(c1)NC(=O)CO2`, which melting point is on record?
A: 220 to 221 °C

Q: Which melting point does the source give for `CN1C(=O)CCC2(C)c3ccc(C(c4ccccc4)c4ccccc4)cc3CCC12` (centres undefined) here?
A: 145 to 146 °C

Q: With `CN1CCC(c2cccc3ccc(C(=O)NCCCc4ccccc4)cc23)CC1` as the molecule, how does the melting point read?
A: 47 to 50 °C

Q: Which melting point does the source give for `COC(=O)c1ccc(O)c(C(=O)CC(=O)c2cccnc2)c1` here?
A: 200 to 202 °C

Q: With `CCc1c(-c2ccc(OCc3ccccc3)cc2)c2c(COC)cc3c(OCc4ccccc4)ccc1n32` as the molecule, how does the melting point read?
A: 127 to 130 °C

Q: With `CCCCCCCCCCCCCCCCC12CCC3=C(CCc4cc(OC)ccc43)C1CCC2=O` (centres undefined) as the molecule, how does the melting point read?
A: 54 to 56 °C

Q: For `O=CC(=Cc1ccccc1OCc1ccc([N+](=O)[O-])cc1)C(C=O)=Cc1ccccc1OCc1ccc([N+](=O)[O-])cc1`, which melting point is on record?
A: 116 to 117 °C

Q: For `O=c1ccc2c([nH]1)C(Nc1ccccc1)CCC2` (centres undefined), which melting point is on record?
A: 225 °C

Q: With `Cc1cc(O)c(Oc2ccccc2C#N)cc1[N+](=O)[O-]` as the molecule, how does the melting point read?
A: 157 to 159 °C

Q: With `Cn1c(SCCO)nnc1SCCO` as the molecule, how does the melting point read?
A: 87 to 88 °C

Q: For `CC(C)c1n[nH]c2c(NCc3ccccc3Br)ncnc12`, which melting point is on record?
A: 194 to 196 °C

Q: For `O=C1Nc2ccc(Cl)cc2CN2CCCC12` (centres undefined), which melting point is on record?
A: 97 to 99 °C

Q: With `O=c1oc2ccccc2c(O)c1CCCOc1ccccc1` as the molecule, how does the melting point read?
A: 125 to 126 °C

Q: For `O=c1[nH]c2ncc(-c3ccc(O)cc3)nc2n1CC1CCCCC1`, which melting point is on record?
A: 302 to 303 °C

Q: Which melting point does the source give for `CC1(Br)C(Br)=CC(O)=C(Br)C1Br` (centres undefined) here?
A: 195 to 196 °C

Q: Which melting point does the source give for `CC(C)(C)c1cc([N+](=O)[O-])cc(C(C)(C)C)c1O` here?
A: 167 to 168 °C

Q: With `O=C1NCN2CCC1CC2` as the molecule, how does the melting point read?
A: 125 to 126 °C

Q: Which melting point does the source give for `CC1(CN2CCN(Cc3ccccc3)C2=O)Cn2cc([N+](=O)[O-])nc2O1` (centres undefined) here?
A: 180 to 181 °C

Q: Which melting point does the source give for `Cc1cc(-c2nncc3c(C(C)(C)C)c(OCc4cccnc4)nn23)no1` here?
A: 139 to 141 °C

Q: With `O=C(Nc1ccc(C(F)(F)F)cc1)C1=NN(c2cccc(Cl)c2)C(c2ccccc2)CC1` (centres undefined) as the molecule, how does the melting point read?
A: 183 to 184 °C

Q: Which melting point does the source give for `O=C(c1ccccc1)c1ccccc1NC(=O)C(Cl)Cl` here?
A: 112 to 114 °C

Q: Which melting point does the source give for `CCOC(=O)c1cc(O)ccc1OCC` here?
A: 49 to 53 °C

Q: For `CC(=O)OCC1OC(n2c(Cl)nc3ccc(Br)cc32)C(OC(C)=O)C1OC(C)=O` (centres undefined), which melting point is on record?
A: 121 to 122 °C

Q: For `Cc1ccc(C(=O)Oc2ccccc2)cc1`, which melting point is on record?
A: 74 to 76 °C

Q: With `O=C(O)c1ccc(C2=NCCO2)nc1` as the molecule, how does the melting point read?
A: 286 to 287 °C

Q: With `CCC1=C(C#N)C(c2cccc(C#N)c2Br)c2c[nH]nc2N1` (centres undefined) as the molecule, how does the melting point read?
A: > 300 °C

Q: With `CC(C)NC(=O)C(O)C(Cc1ccccc1)NC(=O)OC(C)(C)C` (mixture of isomers) as the molecule, how does the melting point read?
A: 126 to 145 °C

Q: For `COc1ccc(S(=O)(=O)Nc2cccnc2NC(=O)c2ccccc2C)cc1`, which melting point is on record?
A: 160 to 162 °C

Q: With `O=C(NCc1ccc(Cl)cc1)c1noc2ccc(I)cc2c1=O` as the molecule, how does the melting point read?
A: 188 to 190 °C

Q: Which melting point does the source give for `Cc1ccc(-n2c(=O)[nH]c(C(F)(F)F)c(F)c2=O)cc1C(=O)OC(C)C` here?
A: 97 to 100 °C

Q: Which melting point does the source give for `CCCC(=O)c1cccc(NC(=O)C=C(C)OC)c1` here?
A: 81 °C

Q: With `CNC(=O)ON=Cc1nn(-c2c(Cl)cc(C(F)(F)F)cc2Cl)c(N)c1S(C)=O` (centres undefined) as the molecule, how does the melting point read?
A: 146 to 147 °C

Q: With `O=C1CN2Cc3cc(C(=O)c4ccccc4)ccc3N=C2N1` as the molecule, how does the melting point read?
A: > 300 °C

Q: For `CO/C=C(/C(=O)OC)c1ccccc1Oc1cc(O)ncn1`, which melting point is on record?
A: 168 to 170 °C

Q: With `Cc1nc(NCCSCc2nc[nH]c2C)[nH]c(=O)c1Cc1cccnc1` as the molecule, how does the melting point read?
A: 128 to 131 °C

Q: With `Cc1oc(-c2ccccc2)nc1COc1cccc(CCl)c1` as the molecule, how does the melting point read?
A: 79 to 80 °C

Q: With `CCOC(=O)C1=C(C)NC(O)(C(F)(F)F)C(C(=O)OCC)C1c1cccc([N+](=O)[O-])c1` (centres undefined) as the molecule, how does the melting point read?
A: 120 to 121 °C

Q: Which melting point does the source give for `CCCCCCCCCCCCc1nnn(C(CCCCCCCCCCCC)C(=O)Nc2c(OC)cc(OC)cc2OC)n1` (centres undefined) here?
A: 138 to 140 °C

Q: For `O=C(O)c1cc(C(F)(F)F)nn1-c1ncccc1Cl`, which melting point is on record?
A: 175 to 176 °C

Q: With `CNC(=O)N1CC(Oc2ccc(C(F)(F)F)cc2Cl)C1` as the molecule, how does the melting point read?
A: 160 to 161 °C

Q: With `CNc1ccc(C#N)cc1` as the molecule, how does the melting point read?
A: 85 to 87 °C

Q: Which melting point does the source give for `COC(=S)C(=Cc1ccccc1)N1CC(N2C(=O)c3ccccc3C2=O)C1=O` (centres undefined) here?
A: 170 to 171 °C

Q: For `COc1ccc(CSC(=S)N2C(CO)Cc3c([nH]c4ccccc34)C2C)cc1` (centres undefined), which melting point is on record?
A: 152 to 153 °C

Q: For `CCOC(=O)N1CCN(C2=Nc3ccccc3Cc3ccccc32)CC1`, which melting point is on record?
A: 137 to 138 °C

Q: With `CC(C)OC(=O)Cc1ccc2c(c1)C(=O)c1sccc1CO2` as the molecule, how does the melting point read?
A: 92 to 94 °C

Q: Which melting point does the source give for `C=C(C)C(=O)OCCc1ccc(N(C)C)cc1` here?
A: 42 to 43 °C

Q: With `O=C1c2ccccc2OC(CCCl)CN1Cc1ccccc1` (centres undefined) as the molecule, how does the melting point read?
A: 145 to 147 °C

Q: With `Cn1ncc(Cl)c(NCCCO)c1=O` as the molecule, how does the melting point read?
A: 65 to 66 °C

Q: For `CC1(C)CC(O)CC(C)(C)N1N=Nc1ccc([N+](=O)[O-])cc1`, which melting point is on record?
A: 108 to 110 °C

Q: Which melting point does the source give for `CCc1cc2ccccc2c(=O)o1` here?
A: 69 °C

Q: For `NC1Cc2ccccc2N(c2ccccc2)C1=O` (centres undefined), which melting point is on record?
A: 108 to 110 °C

Q: With `Nc1ccc(Sc2cc(F)cc(F)c2)c(Cl)c1` as the molecule, how does the melting point read?
A: 156 to 158 °C

Q: With `COc1ccc(C2CCc3cc(OC)ccc3C2CO)cc1` (centres undefined) as the molecule, how does the melting point read?
A: 84 °C

Q: With `OCCCC(=C(c1ccccc1)c1ccccc1)c1ccccc1` as the molecule, how does the melting point read?
A: 128 to 130 °C

Q: For `Cc1c(-c2ccccc2Cl)n(-c2ccccc2)c(-c2ccccc2F)cc1=O`, which melting point is on record?
A: 182 to 183 °C

Q: With `CCC(=O)c1cc(C2(c3cccc(-c4cccnc4F)c3)N=C(N)N(C)C2=O)cs1` (centres undefined) as the molecule, how does the melting point read?
A: 98 to 112 °C

Q: For `CC1(c2ccccc2)OC(=S)Nc2ccc(-c3cccc(Cl)c3)cc21` (centres undefined), which melting point is on record?
A: 202 to 203 °C

Q: With `CNc1cc(F)c(C#N)cc1F` as the molecule, how does the melting point read?
A: 160 to 163 °C

Q: For `CCCCNC(=O)Oc1cccc(NC(=O)CC(C)(OC)OC)c1`, which melting point is on record?
A: 114 °C

Q: Which melting point does the source give for `Cc1cc(Cl)c(C(N)=O)cc1[N+](=O)[O-]` here?
A: 180 to 183 °C
